The structures appear in SMILES notation. A value given as a limit tells only on which side of the number the result lay.

As a reminder, the IC50 is the point on the concentration scale where inhibition reaches its midpoint. The term EC50 denotes the concentration giving half of the maximal effect.

One test deals with T1, PTPN2 enzyme (Homo sapiens, UniProt P17706).
T1 sequence (P17706 1-415): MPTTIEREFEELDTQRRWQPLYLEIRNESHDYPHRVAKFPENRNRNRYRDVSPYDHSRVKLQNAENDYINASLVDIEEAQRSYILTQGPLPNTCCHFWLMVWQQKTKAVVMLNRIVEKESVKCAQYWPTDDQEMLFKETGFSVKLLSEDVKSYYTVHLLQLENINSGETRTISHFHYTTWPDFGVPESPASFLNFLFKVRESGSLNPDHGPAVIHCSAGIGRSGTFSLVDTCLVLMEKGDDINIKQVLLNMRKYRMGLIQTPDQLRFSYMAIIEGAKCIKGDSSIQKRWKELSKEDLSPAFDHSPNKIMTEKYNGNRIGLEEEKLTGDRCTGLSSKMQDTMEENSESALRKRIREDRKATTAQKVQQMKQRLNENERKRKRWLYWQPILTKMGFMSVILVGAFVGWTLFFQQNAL
Briefly: PhosphoSens PTPN2 biochemical assay. The conditions noted are these: substrate AQT0264 20 μM, room temperature; read-out: PTPN2 BCHEM IC50. Here is the method: A PhosphoSens® kinase assay was performed as described by the vendor (AssayQuant Technologies, Marlborough, MA). Briefly, 1000×solutions of compounds were prepared in DMSO via serial dilution of the 10 mM DMSO stocks using 3-fold intervals in a 384-well reagent plate. 50 nL of the compound dilution series was then added to the corresponding wells of a 384-well assay plate. […] of 1.25×substrate (AQT0264) in 1× assay buffer (50 mM HEPES pH 7.5, 500 μM EGTA, […] MgCl2, 0.01% Brij-35, 1% Glycerol, 1 mM DTT, and 0.2 mg/mL BSA) was transferred to each well of the assay plate to achieve a final substrate concentration of 20 μM. Finally, […] of 5×PTPN2 enzyme stock was added to each well of the assay plate for a final enzyme concentration of […]. Reaction progress curves were collected by sampling fluorescence intensity at the excitation wavelength 360 nm (λex360) and emission wavelength 480 nm (λem480) every 71 seconds for one hour using a Synergy H4 plate reader (BioTek Instruments/Agilent Technologies, Winooski, VT) at room temperature.

Test [1] relates to phosphorylated STAT1 protein levels in B16-F10 cells. Briefly: Phospho-STAT1 (Tyr701) HTRF assay in IFN-gamma treated B16-F10 cells. The conditions noted are these: mouse IFN-gamma 100 ng/mL, 1 hour, read-out: pSTAT1 HTRF B16 EC50. The test is classed as cell-based. How it is done:
B16-F10 cells (ATCC, Manassas, VA, #CRL-6475) were cultured in DMEM growth medium (ThermoFisher Scientific, Waltham, MA, #11995-040) supplemented with 10% heat inactivated FBS (ThermoFisher Scientific, #16140-071) and 1% pen/strep (ThermoFisher Scientific, #15140-122). The cells were seeded into a white opaque 384-well tissue culture treated microplate (PerkinElmer, Waltham, MA, #6007688) at a density of 10,000 cells/well in 20 uL total volume and incubated overnight at 37 C and 5% CO2. 30 nL of compounds dissolved in DMSO were then transferred from a source plate into target wells with the Echo650 acoustic liquid handler (Beckman Coulter, Indianapolis, IN). Negative control wells received 30 nL of DMSO only (0.15% final concentration). Plates were returned to the incubator for 1 hour and then cells treated with either 5 uL of growth medium or 5 uL of growth medium containing 500 ng/mL of recombinant mouse IFN-gamma protein (R&D Systems, Minneapolis, MN, #485-MI/CF, 100 ng/mL final concentration) using the Assist automated pipetting platform (INTEGRA Biosciences, Hudson, NH). Plates were incubated at 37 C for 1 hour and assayed for phosphorylated STAT1 protein levels with the phospho-STAT1 (Tyr701) HTRF kit (Cisbio, Bedford, MA, #63ADK026PEH) according to manufacturer's instructions.

The test system of a further test is B16-F10 cells. As to the kind of experiment: Cell proliferation assay (CellTiter-Glo) in IFN-gamma treated B16-F10 cells. The test is classed as cell-based. To be noted: 120 h, mouse IFN-gamma 10 ng/mL, read-out: PTPN2 Prolif 5d B16F10 EC50. How it is done: B16-F10 cells (ATCC, Manassas, VA, #CRL-6475) were cultured in DMEM growth medium (ThermoFisher Scientific, Waltham, MA, #11995-040) supplemented with 10% heat inactivated FBS (ThermoFisher Scientific, #16140-071) and 1% pen/strep (ThermoFisher Scientific, #15140-122). The cells were seeded into two white opaque 384-well tissue culture treated microplates (PerkinElmer, Waltham, MA, #6007688) at a density of 100 cells/well in 20 uL total volume and incubated overnight at 37 C and 5% CO2. 30 nL of compounds dissolved in DMSO were then transferred from a source plate into target wells with the Echo650 acoustic liquid handler (Beckman Coulter, Indianapolis, IN). Negative control wells received 30 nL of DMSO only (0.15% final concentration). Plates were returned to the incubator for 1 hour and then cells treated with either 5 uL of growth medium or 5 uL of growth medium containing 50 ng/mL of recombinant mouse IFN-gamma protein (R&D Systems, Minneapolis, MN, #485-MI/CF, 10 ng/mL final concentration) using the Assist automated pipetting platform (INTEGRA Biosciences, Hudson, NH). Plates were incubated at 37 C for 4 days and cell proliferation assayed with the CellTiter-Glo reagent (Promega, Madison, WI, #G7573, 25 uL per well). […] Off-target compound mediated cytotoxicity was identified by checking for growth inhibition in the absence of IFNg.
In general terms: In ATP-based viability assays light output follows the ATP content of the culture.

In the case of `CN1CCC(c2cc(O)c(N3CC(=O)NS3(=O)=O)c(F)c2)CC1` [EXAMPLE 4, 5-[2-fluoro-6-hydroxy-4-(1-methyl-4-piperidyl)phenyl]-1,1-dioxo-1,2,5-thiadiazolidin-3-one], the IC50 on PTPN2 enzyme came out at 0.807 µM. In addition, the EC50 (in test [1]; with B16-F10 cells) was at least 15 µM throughout.
For the compound `CC(C)CCN1CCCC(c2cc(O)c(N3CC(=O)NS3(=O)=O)c(F)c2)C1` (stereo not drawn) [EXAMPLE 5, 5-(2-fluoro-6-hydroxy-4-(1-isopentylpiperidin-3-yl)phenyl)-1,2,5-thiadiazolidin-3-one 1,1-dioxide], the IC50 on PTPN2 enzyme turned out to be 1.02 µM. For the same compound, the 50% effective concentration (EC50) (in test [1]; in the test with B16-F10 cells) was at least 15 µM throughout.
For the compound `O=C1CN(c2c(O)cc(-c3ccccn3)cc2F)S(=O)(=O)N1` [EXAMPLE 7, 5-(2-fluoro-6-hydroxy-4-(pyridin-2-yl)phenyl)-1,2,5-thiadiazolidin-3-one 1,1-dioxide], the IC50 at PTPN2 enzyme came out at 0.568 µM. The EC50 (in test [1]; in the test on B16-F10 cells) was at least 15 µM in each case.
For `O=C1CN(c2c(O)cc(-c3cccnc3)cc2F)S(=O)(=O)N1` [EXAMPLE 8, 5-(2-fluoro-6-hydroxy-4-(pyridin-3-yl)phenyl)-1,2,5-thiadiazolidin-3-one 1,1-dioxide], the IC50 on PTPN2 enzyme is 0.199 µM. The EC50 in test [1] was 2.43 µM; in the test with B16-F10 cells, at least 15 µM.
In the same order, the values of `O=C1CN(c2c(O)cc(-c3ccncc3)cc2F)S(=O)(=O)N1` [EXAMPLE 9, 5-(2-fluoro-6-hydroxy-4-(pyridin-4-yl)phenyl)-1,2,5-thiadiazolidin-3-one 1,1-dioxide] are 0.322 µM, at least 15 µM and at least 15 µM.
On the same counts, the results for `O=C1CN(c2c(O)cc(-c3ccc(Cc4ccccc4)cc3)cc2F)S(=O)(=O)N1` [EXAMPLE 10, 5-[4-(4-benzylphenyl)-2-fluoro-6-hydroxy-phenyl]-1,1-dioxo-1,2,5-thiadiazolidin-3-one] are 6.14 µM, at least 15 µM and at least 15 µM.
For `O=C1CN(c2c(O)cc(-c3cccc(-c4ccccc4)c3)cc2F)S(=O)(=O)N1` [EXAMPLE 11, 5-[2-fluoro-6-hydroxy-4-(3-phenylphenyl)phenyl]-1,1-dioxo-1,2,5-thiadiazolidin-3-one], the IC50 at PTPN2 enzyme turned out to be 1.34 µM. The EC50 (in test [1]; with B16-F10 cells) was at least 15 µM each time.
Turning to `O=C1CN(c2c(O)cc(-c3ccc(-c4ccc(F)cc4)cc3)cc2F)S(=O)(=O)N1` [EXAMPLE 12, 5-[2-fluoro-4-[4-(4-fluorophenyl)phenyl]-6-hydroxy-phenyl]-1,1-dioxo-1,2,5-thiadiazolidin-3-one], the IC50 at PTPN2 enzyme was 1.99 µM. The EC50 (in test [1]; in the test on B16-F10 cells) was at least 15 µM each time.
Consider `O=C1CN(c2c(O)cc(-c3ccc(N4CCOCC4)cc3)cc2F)S(=O)(=O)N1` [EXAMPLE 13, 5-[2-fluoro-6-hydroxy-4-(4-morpholinophenyl)phenyl]-1,1-dioxo-1,2,5-thiadiazolidin-3-one], for which, at PTPN2 enzyme, the IC50 worked out at 0.466 µM. For the same compound, the EC50 (in test [1]; with B16-F10 cells) was at least 15 µM in each case.
As for `O=C1CN(c2c(O)cc(-c3cccc(Oc4ccccc4)c3)cc2F)S(=O)(=O)N1` [EXAMPLE 14, 5-[2-fluoro-6-hydroxy-4-(3-phenoxyphenyl)phenyl]-1,1-dioxo-1,2,5-thiadiazolidin-3-one], on PTPN2 enzyme, the 50% inhibitory concentration (IC50) is 2.21 µM. Besides, the EC50 (in test [1]; in the test with B16-F10 cells) was at least 15 µM in each case.
In the case of `CC(C)Cc1ccc(-c2cc(O)c(N3CC(=O)NS3(=O)=O)c(F)c2)cc1` [EXAMPLE 15, 5-[2-fluoro-6-hydroxy-4-(4-isobutylphenyl)phenyl]-1,1-dioxo-1,2,5-thiadiazolidin-3-one], the IC50 at PTPN2 enzyme stood at 2.48 µM. Besides, the EC50 (in test [1]; with B16-F10 cells) was at least 15 µM each time.
Take `O=C1CN(c2c(O)cc(-c3cccc(N4CCOCC4)c3)cc2F)S(=O)(=O)N1` [EXAMPLE 16, 5-[2-fluoro-6-hydroxy-4-(3-morpholinophenyl)phenyl]-1,1-dioxo-1,2,5-thiadiazolidin-3-one]: the IC50 on PTPN2 enzyme was determined as 0.423 µM. Besides, the EC50 (in test [1]; with B16-F10 cells) was at least 15 µM in each case.
As for `O=C1CN(c2c(O)cc(-c3ccc(C4CC4)cc3)cc2F)S(=O)(=O)N1` [EXAMPLE 17, 5-[4-(4-cyclopropylphenyl)-2-fluoro-6-hydroxy-phenyl]-1,1-dioxo-1,2,5-thiadiazolidin-3-one], the IC50 on PTPN2 enzyme was determined as 1.41 µM. Besides, the EC50 is 7.95 µM in test [1] and at least 15 µM with B16-F10 cells.
In the same order, the values of `O=C1CN(c2c(O)cc(-c3cc(-c4ccccc4)cs3)cc2F)S(=O)(=O)N1` [EXAMPLE 18, 5-[2-fluoro-6-hydroxy-4-(4-phenyl-2-thienyl)phenyl]-1,1-dioxo-1,2,5-thiadiazolidin-3-one] are 1.19 µM, at least 15 µM and at least 15 µM.
In the same order, the values of `O=C1CN(c2c(O)cc(-c3ccc(CN4CCCC4)cc3)cc2F)S(=O)(=O)N1` [EXAMPLE 19, 5-[2-fluoro-6-hydroxy-4-[4-(pyrrolidin-1-ylmethyl)phenyl]phenyl]-1,1-dioxo-1,2,5-thiadiazolidin-3-one] are 0.483 µM, at least 15 µM and at least 15 µM.
In the same order, the values of `O=C1CN(c2c(O)cc(-c3ccnc(-c4ccccc4)c3)cc2F)S(=O)(=O)N1` [EXAMPLE 20, 5-[2-fluoro-6-hydroxy-4-(2-phenyl-4-pyridyl)phenyl]-1,1-dioxo-1,2,5-thiadiazolidin-3-one] are 0.205 µM, at least 15 µM and at least 15 µM.
As to `Cc1cc(OCC2CC2)cc(-c2cc(O)c(N3CC(=O)NS3(=O)=O)c(F)c2)c1` [EXAMPLE 21, 5-[4-[3-(cyclopropylmethoxy)-5-methyl-phenyl]-2-fluoro-6-hydroxy-phenyl]-1,1-dioxo-1,2,5-thiadiazolidin-3-one], the IC50 at PTPN2 enzyme was determined as 6.96 µM. For the same compound, the EC50 (in test [1]; with B16-F10 cells) was at least 15 µM throughout.
With `CC(C)(O)c1ccc(-c2cc(O)c(N3CC(=O)NS3(=O)=O)c(F)c2)cc1` [EXAMPLE 22, 5-[2-fluoro-6-hydroxy-4-[4-(1-hydroxy-1-methyl-ethyl)phenyl]phenyl]-1,1-dioxo-1,2,5-thiadiazolidin-3-one], on PTPN2 enzyme, the IC50 was 0.179 µM. Also, the EC50 (in test [1]; with B16-F10 cells) was at least 15 µM each time.
For `COc1ccc(-c2cc(O)c(N3CC(=O)NS3(=O)=O)c(F)c2)cn1` [EXAMPLE 23, 5-[2-fluoro-6-hydroxy-4-(6-methoxy-3-pyridyl)phenyl]-1,1-dioxo-1,2,5-thiadiazolidin-3-one], the IC50 at PTPN2 enzyme is 0.142 µM. Moreover, the EC50 (in test [1]; in the test with B16-F10 cells) was at least 15 µM throughout.
